Measurements taken from patent US12195557B2, “Optimised compounds” (AXELIA ONCOLOGY PTY LTD, priority 2017, dated 2025).
Where “and” joins values, the source holds several entries; their conditions need not be identical. Equal entries are not always repeated. Entries after “also recorded” stand apart in the source; their conditions may differ. Where two headings read alike, the source gives them in different places.

Assays:
[1] = tested on: A/Udorn/307/72 (H3N2) influenza virus; format: in vivo, C57BL/6 mice
[2] = tested on: other TLR pattern recognition receptors (hTLR3, hTLR4, hTLR5, hTLR7, hTLR8, hTLR9); assay: TLR panel, NF-κB inducible SEAP reporter in HEK293 cells: other TLRs; format: cell-based, human and mouse
Protocol: (§1) INNA-006 was assessed for its ability to activate a range of other TLR pattern recognition receptors. These assessments were conducted using both human and mouse TLR panels. These assays detect a secreted embryonic alkaline phosphatase (SEAP) reporter under the control of a promoter which is inducible by NF-κB activation in HEK293 cells. The secreted embryonic alkaline phosphatase (SEAP) reporter is under the control of a promoter inducible by the transcription factor NF-κB. This reporter gene allows the monitoring of signaling through the TLR, based on the activation of NF-κB. In a 96-well plate (200 μL total volume) containing the appropriate cells (50,000-75,000 cells/well), 20 μL of the test article or the positive control ligand is added to the wells. The media added to the wells is designed for the detection of NF-κB induced SEAP expression. After a 16-24 hr incubation the optical density (OD) is read at 650 nm on a Molecular Devices SpectraMax 340PC absorbance detector. • hTLR2: HKLM (heat-killed Listeria monocytogenes) at 1×10^8 cells/mL • hTLR3: Poly(I:C) HMW at 1 μg/mL • hTLR4: E. coli K12 LPS at 100 ng/mL • hTLR5: S. typhimurium flagellin at 100 ng/mL • hTLR7: CL307 at 1 μg/mL • hTLR8: CL075 at 1 μg/mL • hTLR9: CpG ODN2006 at 1 μg/mL.

[3] = tested on: cytokines/chemokines (IL-6, KC, MCP-1, RANTES); assay: Cytokine/chemokine levels in nasal turbinates, trachea, lungs and sera (cytometric bead array); format: in vivo, C57BL/6 mice
[4] = target: T1, human TLR2 (Homo sapiens, UniProt O60603); assay: NF-kB activation in HEKBlue-hTLR2 cell line (SEAP reporter); format: cell-based
T1 construct: host or cells: HEK-Blue hTLR2 (HEK293-derived) cell line
Protocol: The potency of the compounds as activators of human and mouse TLR-2s was tested in an in vitro assay. The assay assesses NF-kB activation in the HEKBlue-mTLR-2 cell line. These cells have been stably transfected with mouse TLR-2 and express TLR-1 and TLR-6 endogenously at sufficient levels to allow for fully-functional TLR-1/2 and TLR-2/6 activation.
(§2) Toll-Like Receptor 2 (TLR2) stimulation is tested by assessing NF-kB activation in the HEKBlue-hTLR2 cell line. These cells have been stably transfected with human TLR2 and express TLR1 and TLR6 endogenously at a level sufficient to allow for fully-functional TLR1/2 and TLR2/6 activation. The activity of the test articles are tested on human TLR2 as potential agonists. The test articles are evaluated at seven concentrations and compared to control ligands. These steps are performed in triplicate.
as §2, with “stimulation was” for “stimulation is”, “assessing N-kB” for “assessing NF-kB”, “the HEK-Blue hTLR2” for “the HEKBlue-hTLR2”, “articles were” for “articles are”, “control ligands (see list below).” for “control ligands.”, “steps were” for “steps are”
The secreted embryonic alkaline phosphatase (SEAP) reporter is under the control of a promoter inducible by the transcription factor NF-κB. This reporter gene allows the monitoring of signaling through the TLR, based on the activation of NF-κB. In a 96-well plate (200 μL total volume) containing the appropriate cells (50,000-75,000 cells/well), 20 μL of the test article or the positive control ligand is added to the wells. The media added to the wells is designed for the detection of NF-κB induced SEAP expression. After a 20 hour incubation the optical density (OD) is read at 650 nm on a Molecular Devices SpectraMax 340PC absorbance detector.

[5] = in vitro; conditions: rat, rat plasma
[6] = in vitro; conditions: dog, hepatocytes
[7] = Dynamic light scattering (DLS) particle size; format: physicochemical; conditions: within 2 hours of sample preparation
Protocol: INNA-011 and INNA-006 form micelle-type aggregates in both aqueous and organic solutions. The size distribution and polydispersity of particles of INNA-006 and INNA-011 were determined by dynamic light scattering (DLS) and size exclusion chromatography (University of Melbourne).
As the concentration of INNA-006 is increased, material with a particle size centered on a radius of ˜7 nm accumulates within 2 hours of the sample preparation as measured by DLS. This accumulation starts at a concentration of ˜16 μM, (0.02 mg/ml, represents the 0.16 nmole/10 μl curve) and is clearly discernable at 125 μM (0.17 mg/ml, represents the 1.25 nmole/10 μl curve) and above.
At the concentrations of 2 mM to […] particle sizes (7.4-7.7 nm) were larger than that observed with INNA-006 and additional species outside of this main sequence were more ordered and less dominant.

[8] = tested on: TLR-2; assay: TLR panel, NF-κB inducible SEAP reporter in HEK293 cells: TLR-2; format: cell-based, human and mouse
Protocol: as §1

[9] = in vitro; conditions: cynomolgus monkey, hepatocytes
[10] = in vitro; conditions: dog, dog plasma
[11] = 3-dose regime, 0.5 and 0.05 nmole doses

T1 sequence (O60603 21-784): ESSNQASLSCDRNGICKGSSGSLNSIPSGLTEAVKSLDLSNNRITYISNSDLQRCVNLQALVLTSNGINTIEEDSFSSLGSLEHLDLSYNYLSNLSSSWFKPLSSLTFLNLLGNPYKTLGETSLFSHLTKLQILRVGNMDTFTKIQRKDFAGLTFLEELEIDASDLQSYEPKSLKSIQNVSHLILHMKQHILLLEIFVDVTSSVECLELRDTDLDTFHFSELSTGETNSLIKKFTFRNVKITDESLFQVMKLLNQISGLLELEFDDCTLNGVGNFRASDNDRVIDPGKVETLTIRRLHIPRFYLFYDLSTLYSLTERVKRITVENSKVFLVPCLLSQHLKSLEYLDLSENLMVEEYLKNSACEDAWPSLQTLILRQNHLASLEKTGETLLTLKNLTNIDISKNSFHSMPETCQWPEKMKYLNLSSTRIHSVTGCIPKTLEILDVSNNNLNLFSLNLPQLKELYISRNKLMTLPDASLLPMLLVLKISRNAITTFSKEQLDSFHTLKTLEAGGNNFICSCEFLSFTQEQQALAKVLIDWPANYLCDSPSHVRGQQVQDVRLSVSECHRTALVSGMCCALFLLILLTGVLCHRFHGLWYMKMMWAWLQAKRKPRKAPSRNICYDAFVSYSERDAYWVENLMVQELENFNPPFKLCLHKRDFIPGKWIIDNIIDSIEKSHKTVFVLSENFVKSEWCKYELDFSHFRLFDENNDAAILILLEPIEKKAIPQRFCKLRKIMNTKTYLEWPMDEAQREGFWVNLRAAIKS
T1 sequence (Q9Y2C9 32-796 partner): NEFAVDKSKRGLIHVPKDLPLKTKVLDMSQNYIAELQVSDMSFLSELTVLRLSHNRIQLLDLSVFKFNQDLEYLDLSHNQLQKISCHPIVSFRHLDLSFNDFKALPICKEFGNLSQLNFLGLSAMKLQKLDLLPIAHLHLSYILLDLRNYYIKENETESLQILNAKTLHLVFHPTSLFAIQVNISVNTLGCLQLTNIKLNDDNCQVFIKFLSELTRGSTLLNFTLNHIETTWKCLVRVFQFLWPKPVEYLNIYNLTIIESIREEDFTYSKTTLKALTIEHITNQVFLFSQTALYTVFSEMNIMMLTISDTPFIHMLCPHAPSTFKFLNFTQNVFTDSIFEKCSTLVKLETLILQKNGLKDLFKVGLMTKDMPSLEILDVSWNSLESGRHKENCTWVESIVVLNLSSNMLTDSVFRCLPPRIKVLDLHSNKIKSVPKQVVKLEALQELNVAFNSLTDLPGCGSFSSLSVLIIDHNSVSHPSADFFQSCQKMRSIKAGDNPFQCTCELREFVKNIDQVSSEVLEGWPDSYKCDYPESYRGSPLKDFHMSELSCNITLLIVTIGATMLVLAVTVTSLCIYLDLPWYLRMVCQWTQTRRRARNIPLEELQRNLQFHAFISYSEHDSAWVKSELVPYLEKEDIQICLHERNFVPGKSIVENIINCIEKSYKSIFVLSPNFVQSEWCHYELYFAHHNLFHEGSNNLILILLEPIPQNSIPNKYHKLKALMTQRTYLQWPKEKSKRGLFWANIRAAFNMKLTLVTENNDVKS

**Q.** For `CCC(=O)OCC(CSCC(N)C(=O)NC(CO)C(=O)NCCOCC(=O)NCC(N)=O)OC(=O)CC` (stereo not drawn) [INNA-006, Pam2Cys-Ser-PEG], which “progression of influenza virus to the lungs (lung viral titre)” value (“progression of influenza virus” for short) ([1]; 0.005 nmoles intranasal 1 day prior to 500 pfu Udorn challenge, n=5, day 5 (Example 4)) is on record?
**A.** partial inhibition

**Q.** And the “progression of influenza virus” value ([1]; 0.05 nmoles intranasal 1 day prior to challenge, n=10 (Example 5))?
**A.** partial inhibition

**Q.** And the “progression of influenza virus” value ([1]; 0.1 nmoles intranasal 1 day prior to 500 pfu Udorn challenge, n=5, day 5 (Example 4))?
**A.** significantly inhibited

**Q.** And the “progression of influenza virus” value ([1]; 0.5 nmoles intranasal 1 day prior to challenge, n=10 (Example 5))?
**A.** significantly inhibited

**Q.** And the “progression of influenza virus” value ([1]; 5 nmoles intranasal 1 day prior to 500 pfu Udorn challenge, n=5, day 5 (Example 4))?
**A.** significantly inhibited

**Q.** What about the “progression of influenza virus” value ([1]; 5 nmoles intranasal 1 day prior to challenge, n=10 (Example 5)) of the same compound?
**A.** significantly inhibited

**Q.** What about the “times more effective than INNA-003 at inhibiting viral progression” value ([1]; 3 doses of 0.5 nmoles (Example 7, FIG. 10)) of the same compound?
**A.** 10-100 times

**Q.** And the “progression of influenza virus” value ([1]; 3 doses of 0.5 nmoles (days 0, 2, 4), challenge one day after third dose (Example 7))?
**A.** major reduction in viral load in the lungs; also recorded: significant reduction in dissemination of virus to lungs; also recorded: significantly inhibited

**Q.** And the “times more effective than INNA-003 or Pam2Cys-SK4 at inhibiting viral progression” value ([1]; single dose 1 day prior to challenge (Example 4))?
**A.** 10-100 times

**Q.** And the “activation of any other TLR tested” value [2]?
**A.** no activation

**Q.** What about the “fold lower IL-6 in nasal turbinates, 3 doses compared to single dose” value ([3]; 0.5 nmoles) of the same compound?
**A.** approximately 25 fold

**Q.** And the “cytokine/chemokine levels in nasal turbinates, lungs and sera, 3 repeat doses compared to single dose” value ([3]; 0.5 or 0.05 nmoles)?
**A.** marked decrease in cytokine/chemokine levels

**Q.** And the “level of KC in lungs” value ([3]; 3-dose regime (both 0.5 and 0.05 nmole doses))?
**A.** ~14 pg/mL and ~16.3 pg/mL

**Q.** What about the “fold increase of KC secretion in lungs compared to INNA-003” value [3, 11] of the same compound?
**A.** 2 fold

**Q.** What about the “fold increase of KC secretion in lungs compared to saline control” value [3, 11] of the same compound?
**A.** 3 fold

**Q.** What about the “level of IL-6 in nasal turbinates” value ([3]; 3 doses (0.5 nmoles), 24 hours after last dose) of the same compound?
**A.** 15 pg/mL

**Q.** And the “fold increase of KC in nasal turbinates versus saline” value ([3]; mouse, in vivo)?
**A.** 2 fold

**Q.** What about the “level of KC in nasal turbinates” value ([3]; mouse, in vivo) of the same compound?
**A.** ~83 pg/mL

**Q.** What about the “inflammatory cytokines after pre-treatment and Udorn challenge” value ([3]; pre-treatment with up to three doses followed by challenge) of the same compound?
**A.** no detectable change in any of the inflammatory cytokines measured

**Q.** And the “KC in the lungs compared to saline control” value ([3]; single dose)?
**A.** no significance

**Q.** What about the “RANTES in nasal turbinates compared to INNA-003” value ([3]; single dose 0.5 nmoles) of the same compound?
**A.** increased RANTES secretion

**Q.** What about the “fold increase in IL-6 levels in nasal turbinates versus saline” value ([3]; single dose 0.5 nmoles) of the same compound?
**A.** 98 fold

**Q.** And the “level of IL-6 in nasal turbinates” value ([3]; single dose (0.5 nmoles), 24 hours after dose)?
**A.** ~395 pg/mL

**Q.** What about the “cytokine/chemokine profile in nasal turbinates compared to saline (IL-6, KC & MCP-1)” value ([3]; single or 3 repeat doses, 0.5 or 0.05 nmoles, dose-dependent) of the same compound?
**A.** increase in proinflammatory cytokines and chemokines

**Q.** And the “TLR2 activation, potency in words” value ([4]; Example 2)?
**A.** significantly more potent than INNA-003

**Q.** What about the EC50 ([4]; agonist activity against Human TLR-2 in vitro) of the same compound?
**A.** 7.7 pM

**Q.** What about the half-life [5] of the same compound?
**A.** 5.7 h

**Q.** What about the half-life at 0.5 μM [6] of the same compound?
**A.** > 6.25 h

**Q.** What about the hepatocyte CLint at 0.5 μM [6] of the same compound?
**A.** < 2 µL/min/1e6 cells

**Q.** And the “concentration at which accumulation of ~7 nm particles starts” value ([7]; DLS)?
**A.** ~16 µM

**Q.** And the “particle size (radius) by DLS” value ([7]; INNA-011 at 2 mM to 8 pM in PBS)?
**A.** around 7 nm

**Q.** What about the TLR-2 activation [8] of the same compound?
**A.** specific TLR-2 activation; also recorded: able to activate

**Q.** What about the half-life at 0.5 μM [9] of the same compound?
**A.** > 6.25 h

**Q.** What about the hepatocyte CLint at 0.5 μM [9] of the same compound?
**A.** < 2 µL/min/1e6 cells

**Q.** And the half-life [10]?
**A.** 8.9 h
